{"source": "patent US4855321A", "about": "“Antihypercholesterolemic compounds” (Merck & Co., Inc., priority 1988, dated 1989)", "system": "HMG-CoA reductase", "assay": "HMG-CoA Reductase Inhibition Assay (in vitro, [14C]HMG-CoA, relative to compactin)", "format": "biochemical, rat (male Holtzman Sprague-Dawley)", "details": "compactin assigned 100; IC50 of test compound compared with that of compactin determined simultaneously; pH 7.2, 40 min, 37° C.; lactone converted in situ to sodium salt of dihydroxy acid", "protocol": "The intrinsic HMG-CoA reductase inhibition activity of the claimed compounds is measured in the in vitro protocol published in J. Med. Chem., 28, p. 347-358 (1985) and described below:\nMale Holtzman Sprague-Dawley rats (225-250 g) were kept on reversed lighting and fed Purina rat chow containing 3% cholestyramine for 7 days preceding their sacrifice by CO2 asphyxiation. Livers were removed 6 hours into the dark cycle and used immediately to prepare microsomes. […]\nTest compounds or compactin (after first being converted to the sodium salt of their dihydroxy acid form in situ by addition of 1N NaOH (1 equivalent) were added to the assay system in 10-μl volumes at multiconcentration levels. After a 40-minute incubation at 37° C. to ensure the complete lactionization of mevalonic acid to mevalonolactone, 0.2 ml of the mixture was added to an 0.5×5.0 cm column containing 100-200 mesh BioRex 5, chloride form (Bio-Rad), wetted with distilled water, as described by Alberts et al., [J. Proc. Natl. Acad. Sci. U.S.A., 1980, 77, 3957]. The unreacted [^14 C]HMG-CoA was absorbed on the resin and the [^14 C] mevalonolactone was eluted with distilled water (2×1 ml) directly into 7-ml scintillation vials. Five milliliters of Aquasol-2 (New England Nuclear) was added to each vial, and radioactivity was measured in a Packard Tri Carb Prias scintillation counter. […]", "data": [{"smiles": "Cc1cc(C)c(/C=C/[C@H]2C[C@H](O)CC(=O)O2)c(-c2ccc(F)c(CO)c2)c1", "note": "(relative stereo) [trans-(E)-6-[2-[4'-fluoro-3'-(hydroxymethyl)-3,5-dimethyl[1,1'-biphenyl]-2-yl]ethenyl]-3,4,5,6-tetrahydro-4-hydroxy-2H-pyran-2-one]", "values": [{"measurement": "relative potency (intrinsic HMG-CoA reductase inhibitory activity) when compared to compactin at 100", "value": 26.5}]}]}
